Common to all, as to type: cell-based
The subject of assay [1] is human peripheral blood mononuclear cells. In words: Endotoxin-induced secretion of mature IL-1β by peripheral blood mononuclear cells (ELISA). As to the method: Reagents IL-18BPa isoform was expressed with a N-terminal (His)6 tag in Chinese hamster ovary cells and purified to homogeneity. The ability of IL-18BPa-(His)6 to neutralize IL-18 has been described (Kim et al., 2000). The ICE inhibitor (ICEi) Ac-Try-Val-Ala-Asp-chloromethylketone (YVAD) was purchased from Alexis Biochemicals (San Diego) and solubililized in DMSO at 10 mg/ml. The ICEi was diluted in Tyrode's solution before being used. On human peripheral blood mononuclear cells, the ICEi reduces endotoxin-induced secretion of mature IL-1β by 92%, as measured by ELISA (Cistron Biotechnology, Pine Brook, NJ).

The test system of assay [2] is human atrial trabeculae. In words: Ischemia/reperfusion of suprafused human atrial trabeculae: postischemic developed force. As to conditions: N=7, I/R alone 35%. As to the method:
(§1) Isolated Atrial Trabeculae Patients undergoing elective coronary artery bypass surgery with a pump oxygenator require insertion of a canula into the right atrium. At that time, a small segment of the right atrial appendage is routinely excised and discarded. Trabeculae were obtained from this discarded tissue. Human atrial tissue was placed in oxygenated modified Tyrode's buffer solution at 4° C. Modified Tyrode's solution was prepared daily with deionized distilled water and contained D-glucose at 5.0 mmol/liter, CaCl2 at 2.0 mmol/liter, NaCl at 118.0 mmol/liter, KCl at 4.0 mmol/liter, MgSO4.7H2O at 1.2 mmol/liter, NaHCO3 at 25.0 mmol/liter, and NaH2PO4 at 1.2 mmol/liter. […]
Experimental Design Trabeculae were equilibrated for 90 min to increase the baseline stretch force to 1,000 mg and to allow stabilization of developed force. […] Contractions were monitored by force transducers (Grass FT03) and recorded with a computerized preamplifier and digitizer (MacLab Quad Bridge, MacLab/8e, AD Instruments, Milford, Mass.) and continuously monitored with a Macintosh computer. […]
Statisical Analysis Data are expressed as the mean±SEM. Mean changes in developed force were calculated relative to the control value at 90 min for each patient's tissue. Statistical significance of differences between groups were determined by factorial ANOVA with Bonferroni-Dunn post hoc analysis. […]

Assay [3] relates to human atrial trabeculae. Kind of assay: Developed force of human atrial trabeculae exposed to exogenous IL-18 under normoxic conditions. The protocol:
Mature IL-18 (100 ng/ml) were added to atrial trabeculae throughout the 90 min experimental period. The vertical axis indicates the mean percent change from baseline developed force. The baseline was determined at the end of the equilibration period (not shown). (n=6). *P<0.05, **P<0.001 as compared to control at the same interval and for the remainder of the experimental period.
Isolated Atrial Trabeculae Patients undergoing elective coronary artery bypass surgery with a pump oxygenator require insertion of a canula into the right atrium. At that time, a small segment of the right atrial appendage is routinely excised and discarded. Trabeculae were obtained from this discarded tissue. Human atrial tissue was placed in oxygenated modified Tyrode's buffer solution at 4° C. […]
(§2) Experimental Design Trabeculae were equilibrated for 90 min to increase the baseline stretch force to 1,000 mg and to allow stabilization of developed force. […] Contractions were monitored by force transducers (Grass FT03) and recorded with a computerized preamplifier and digitizer (MacLab Quad Bridge, MacLab/8e, AD Instruments, Milford, Mass.) and continuously monitored with a Macintosh computer.
Next, the direct effect of exogenous IL-18 on myocardial contractile function was determined. […]

Assay [4] relates to human atrial trabeculae. Kind of assay: Developed force of human atrial trabeculae exposed to exogenous TNFα, with or without IL-18BP. The note with it: TNFα 1 ng/ml alone; after 90 minutes; n=5. The protocol:
TNFα and IL-18BP were added to each bath change.
as §1, with “mmol/liter. The substrate-free Tyrode's solution contained choline chloride at 7 mmol/liter to maintain osmolarity. Unless otherwise indicated, chemicals and reagents were obtained from Sigma.” for “mmol/liter.”
as §2

Assay [5] deals with human atrial trabeculae. Kind of assay: Tissue creatine kinase (CK) activity in trabeculae exposed to TNFα, with or without IL-18BP. The note with it: 90 minutes of TNFα exposure alone; n=6; control 6801±276. The protocol:
CK activity is expressed in units of CK activity per milligram of wet tissue weight. (n=6).
Preserved Trabecular CK Activity End reperfusion tissue (90 min) CK activity was determined as described (Kaplan et al., 1993). Tissues were homogenized in 100 vol of ice-cold isotonic extraction buffer (Cleveland et al., 1997, Kaplan et al., 1993). The assay was performed with a CK kit (Sigma) by using an automated spectrophotometer. Results are presented as units of CK activity per mg (wet weight of tissue).
Casases are often associated with apoptosis. To assess cellular viability in trabeculae exposed to TNFα, tissue intracellular creatine kinase (CK) was measured. In this assay, high CK levels indicate viable cells. As depicted in FIG. 8, control trabeculae which underwent 90 minutes of normoxic superfusion, contained 6801±276 units of CK activity per milligram of wet tissue weight. […] Trabeculae exposed to TNFα in the presence of IL-18BP contained 5605±212 units/mg of tissue. […] This was an unexpected finding since the magnitude of developed force at the end of the experimental period was similar for I/R and TNFα.

In the case of “Ac-Try-Val-Ala-Asp-chloromethylketone [ICEi]”, the “reduction of endotoxin-induced secretion of mature IL-1β” value in assay [1] was determined as 92%. The “postischemic contractile function, percent of control” value in the assay with human atrial trabeculae [2] (ICEi 10 μg/ml) was determined as 60%; in the assay on human atrial trabeculae [2] (ICEi 20 μg/ml), 75.8%.
On to “IL-18: exogenous mature IL-18 added to atrial trabeculae”, for which the “decrease in developed force” value with human atrial trabeculae [3] (IL-18 100 ng/ml, 90 minutes continuous exposure, normoxic, n=6) is on record as 42%. In addition, in the assay with human atrial trabeculae [3] (human atrial trabeculae), the “potency as myocardial depressant compared with TNFα” value is listed as “not as potent a myocardial depressant as is TNFα”.
For the substance TNFα, the “decrease in developed force compared to control” value in the assay on human atrial trabeculae [4] is reported as 58%. In the assay on human atrial trabeculae [5], the “preserved tissue CK activity” value was 3246±217 units/mg.

Values taken from patent publication US20040234523A1, “Use of IL-18 inhibitors for the treatment and/or prevention of heart disease” (priority 2001, published 2004).
